Read-outs that look alike come from different tables or passages of the source. One block for each compound: values may come before it.
How the values were obtained:
Caf1 = Caf1 (Homo sapiens, UniProt Q9UIV1); assay: Fluorescence-based biochemical assay of Caf1 ribonuclease activity
Method: Following LC–MS and solubility analysis, five compounds were evaluated for their ability to inhibit Caf1 activity using a fluorescence-based biochemical assay (Fig. 1B).[22]
Reactions contained no enzyme (control), complete reactions (enzyme) or complete reactions in the presence of the indicated compound. […] Error bars represent the standard deviation.

PARN = biological target: T1, PARN (Homo sapiens, UniProt O95453); assay: Fluorescence-based biochemical assay of PARN ribonuclease activity; conditions: for IC50: fluorescence-based biochemical assay, ± standard error of the mean (n = 3); for inhibition of PARN ribonuclease activity (in words): Fig. 3, compounds used at 10 μM (5h–k)
T1 sequence (O95453 1-639): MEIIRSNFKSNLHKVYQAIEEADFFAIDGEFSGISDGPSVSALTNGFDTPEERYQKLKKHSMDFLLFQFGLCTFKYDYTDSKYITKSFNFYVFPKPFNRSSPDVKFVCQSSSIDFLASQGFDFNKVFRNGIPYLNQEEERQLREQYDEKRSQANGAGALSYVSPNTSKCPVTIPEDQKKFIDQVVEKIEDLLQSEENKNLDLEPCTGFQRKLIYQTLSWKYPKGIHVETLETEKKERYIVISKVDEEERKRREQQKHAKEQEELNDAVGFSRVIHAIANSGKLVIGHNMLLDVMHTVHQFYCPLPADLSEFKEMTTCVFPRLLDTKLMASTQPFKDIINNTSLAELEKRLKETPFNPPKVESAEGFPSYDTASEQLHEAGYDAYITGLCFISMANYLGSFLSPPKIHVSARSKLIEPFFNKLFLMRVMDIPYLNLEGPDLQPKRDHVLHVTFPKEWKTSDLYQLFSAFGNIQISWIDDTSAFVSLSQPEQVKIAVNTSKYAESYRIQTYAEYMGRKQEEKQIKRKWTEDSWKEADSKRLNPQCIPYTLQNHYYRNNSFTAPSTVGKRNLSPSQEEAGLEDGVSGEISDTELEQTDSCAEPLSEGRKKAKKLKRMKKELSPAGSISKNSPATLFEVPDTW
Method: The selectivity of the compounds was determined by comparing their activities against Caf1 and two related deadenylase enzymes: the PARN ribonuclease, which has a conserved nuclease domain similar to that of Caf1, and Ccr4, whose biological function is related to Caf1, but which contains a dissimilar EEP-type nuclease domain.[22]
Error bars represent the standard deviation.

[1] = read-out: IC50 (Caf1), fluorescence-based biochemical assay, ± standard error of the mean (n = 3)

Sequence of Caf1 (Q9UIV1 whole entry): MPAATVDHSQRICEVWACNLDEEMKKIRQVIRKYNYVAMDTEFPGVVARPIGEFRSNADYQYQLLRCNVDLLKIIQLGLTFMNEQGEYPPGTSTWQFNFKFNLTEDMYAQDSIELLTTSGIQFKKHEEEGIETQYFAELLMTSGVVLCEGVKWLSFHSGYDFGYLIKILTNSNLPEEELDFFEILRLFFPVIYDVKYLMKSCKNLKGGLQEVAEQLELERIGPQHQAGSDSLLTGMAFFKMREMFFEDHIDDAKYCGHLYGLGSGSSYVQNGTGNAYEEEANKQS

SMILES: O=c1[nH]c2ncn(Cc3ccccc3)c2c(=O)n1O [Compound 5a]
IC50 (Caf1): 22.8 ± 0.1 µM
IC50 (Caf1; [1]): 10.4 ± 0.4 µM
IC50 (PARN): 84.1 ± 6.7 µM

SMILES: O=c1[nH]c2ncn(Cc3ccccn3)c2c(=O)n1O [Compound 5c]
IC50 (Caf1; [1]): 10.6 ± 2.7 µM
IC50 (PARN): 119 ± 25 µM

SMILES: O=c1[nH]c2ncn(Cc3cccnc3)c2c(=O)n1O [Compound 5d]
IC50 (Caf1; [1]): 6.6 ± 0.7 µM
IC50 (PARN): 125 ± 32 µM

IC50 (PARN): 245 ± 20 µM
SMILES: O=c1[nH]c2ncn(Cc3ccncc3)c2c(=O)n1O [Compound 5e]

SMILES: O=c1[nH]c2ncn(CCCc3ccccc3)c2c(=O)n1O [Compound 5f]
IC50 (Caf1; [1]): 13.3 ± 2.3 µM

SMILES: CCCCOCCCn1cnc2[nH]c(=O)n(O)c(=O)c21 [Compound 5g]
IC50 (Caf1; [1]): 20.6 ± 5.8 µM

SMILES: O=c1[nH]c2ncn(CCc3cccs3)c2c(=O)n1O [Compound 5h]
IC50 (Caf1; [1]): 3.6 ± 1.1 µM
inhibition of PARN ribonuclease activity (in words) (PARN): also inhibited the related deadenylase PARN

SMILES: O=c1[nH]c2ncn(CCc3ccccc3)c2c(=O)n1O [Compound 5j]
inhibition of PARN ribonuclease activity (in words) (PARN): also inhibited the related deadenylase PARN

SMILES: O=c1[nH]c2ncn(CCc3ccccn3)c2c(=O)n1O [Compound 5k]
IC50 (Caf1; [1]): 4 ± 1.1 µM
inhibition of PARN ribonuclease activity (in words) (PARN): also inhibited the related deadenylase PARN

SMILES: Cn1c(=O)n(O)c(=O)c2c1ncn2CCc1ccccc1 [Compound 8a]
IC50 (Caf1; [1]): 9.3 ± 1.7 µM

SMILES: O=c1c2c(ncn2CCc2ccccc2)n(Cc2ccccc2)c(=O)n1O [Compound 8i]
IC50 (Caf1; [1]): 14.5 ± 0.9 µM

SMILES: CN(C)CCCn1c(=O)n(O)c(=O)c2c1ncn2CCc1ccccc1 [Compound 8j]
increased activity against Caf1 compared to compound 5a (Caf1): > 10 fold
potency against Caf1 relative to all previously identified compounds (Caf1; compared with the inhibitors of ref 22): > 20 fold
IC50 (Caf1; [1]): 0.59 ± 0.11 µM
activity versus PARN (in words) (PARN; Table 2, Fig. 3, 3 μM): displayed reduced activity versus PARN
IC50 (PARN): 23.9 ± 3.7 µM

SMILES: O=c1c2c(ncn2CCc2ccccc2)n(CCN2CCOCC2)c(=O)n1O [Compound 8k]
IC50 (Caf1; [1]): 8.7 ± 0.3 µM

SMILES: O=c1[nH]c2cnn(-c3ccccc3)c2c(=O)n1O [NSC-104148]
IC50 (Caf1; [1]): 38.6 ± 2.79 µM

SMILES: O=c1[nH]c2ncsc2c(=O)n1O [NSC-116567]
IC50 (Caf1; [1]): 28.7 ± 3.8 µM

SMILES: O=c1[nH]c2cccnc2c(=O)n1O [NSC-193557]
IC50 (Caf1; [1]): 525 ± 13.9 µM
